Patent EP0272446B1, “Novel antiviral agents” (SRI INTERNATIONAL, priority 1983, dated 1984)
≈ marks a conversion by molar mass, not a printed value. Where two headings read alike, the source gives them in different places.

Tests used:
[1] = system: Thymidine Kinase-Positive Type 1 Herpes Virus; test: In vitro antiviral test, inhibition of viral cytopathic effect (CPE) in MA-104 cell monolayers; format: cell-based, Strain McCrae of type 1 herpes
Description: The compounds of Example I and II were evaluated in vitro as antiviral agents against herpes virus.
The virus strain employed was Strain McCrae of type 1 herpes (thymidine kinase positive virus) prepared and titered in MA-104 cells and frozen at -90°C until use.
(§1) Continuous passaged monkey kidney (MA-104) cells were used, with growth medium consisting of Minimum Essential Medium (MEM) supplemented with 0.1% NaHCO₃ and 9% fetal calf serum. Test medium consisted of MEM supplemented with 2% fetal bovine serum, 0.18% NaHCO₃ and […] gentamicin.
The last compounds were added to test medium at a concentration of 2000 µg/ml for use as a positive control.
(§2) To a 96 well microtiter plate containing an established 24 hour monolayer of cells from which the medium has been decanted was added 0.1 ml of varying (one-half log₁₀) concentrations of test compound, which incubated on the cell 15 minutes, after which 0.1 ml of virus in a concentration of 320 cell culture 50% infectious doses (CCID50)/0.1 ml was added. The plate was covered with plastic wrap and incubated at 37°C. Included with the test were toxicity controls (each concentration of compound + test medium in place of […]) and cell controls (test medium in place of compound and virus). The cells were examined microscopically after 72 hours for evidence of cytotoxicity and for viral cytopathic effect (CPE). Vidarabine was run on the same plate in parallel.
(§3) Antiviral activity was determined by observation of inhibition of viral CPE. This activity was expressed by minimum inhibitory concentration (MIC), Defined as that dose range of compound causing 50% CPE inhibition. A Virus Rating (VR) was also determined, which is a numerical expression of antiviral activity, weighted to take into account any cytotoxicity observed. Generally, a VR of 0.1 - 0.4 is usually indicative of slight antiviral effect, 0.5 - 0.9 indicates moderate antiviral effedt, and >1.0 implies strong antiviral activity.

[2] = Cytotoxicity (toxicity controls) in the antiviral test, maximum tolerated dose; format: cell-based; details: monkey, ma-104 cells, Table B
Description: as §1, §2

[3] = system: thymidine kinase positive herpes virus; test: In vivo test in guinea pigs inoculated with herpes virus, lesions measured; details: for Satellite lesions: five days later; for TK+ virus, average number of lesions: measured five days later
Description: The compound of Example II was tested in vivo in guinea pigs as an agent against thymidine kinase positive herpes virus. The animals were innoculated with the virus. Eighteen hours later the material of Example II (0.4% solution in water or 1-2% solution), a 5% solution of acyclovir or a 1.4% solution of poly(vinylalcohol) was administered and five days later blister diameters at the point of innoculation were measured. Satellite lesions were measured as well.

cytomegalo virus = test: In vitro antiviral test (CPE inhibition method) against cytomegalo virus; format: cell-based
Description: as §2
as §3, with “Generally, a VR of 0.1 - 0.4 is usually indicative of slight antiviral effect, 0.5 - 0.9 indicates moderate antiviral effedt, and >1.0 implies strong antiviral activity.” left out
The compound of Example II was further evaluated by the above-described in vitro test method against cytomegalo virus. […]

[4] = MA104, 72 h, read-out: CPE Inhib. (%)
[5] = MA104, read-out: MIC (Minimum inhibitory concentration)
[6] = MA104, read-out: Test1 CPE Inhib. (%)
[7] = MA104, read-out: Test2 CPE Inhib. %
[8] = Table A, 0.1 - 0.4 = slight, 0.5 - 0.9 = moderate, ≥ 1.0 = strong activity
[9] = Test 1, read-out: MTD (Maximum tolerated dose)
[10] = Test 2, read-out: MTD (Maximum tolerated dose)
[11] = 0.4% solution in water given eighteen hours after inoculation
[12] = 1-2% saturated solution given eighteen hours after inoculation
[13] = 5% solution given eighteen hours after inoculation

Nc1ncnc2c1ncn2[C@@H]1O[C@H](CO)[C@@H](O)[C@@H]1O [Vidarabine, reference compound]
inhibition at 1 µg/mL [1, 4]: 56% | inhibition at 3.2 µg/mL [1, 4]: 28% | inhibition at 10 µg/mL [1, 4]: 69% | inhibition at 32 µg/mL [1, 4]: 87% | inhibition at 100 µg/mL [1, 4]: 87% | inhibition at 320 µg/mL [1, 4]: 100% | inhibition at 1000 µg/mL [1, 4]: 100% | EC50 [1, 5]: 10 µg/mL (≈ 37.4 µM) | inhibition at 3.2 µg/mL [1, 6]: 2% | inhibition at 10 µg/mL [1, 6]: 60% | inhibition at 32 µg/mL [1, 6]: 96% | inhibition at 100 µg/mL [1, 6]: 96% | inhibition at 320 µg/mL [1, 6]: 100% | inhibition at 1000 µg/mL [1, 6]: 100% | inhibition at 3.2 µg/mL [1, 7]: 0% | inhibition at 10 µg/mL [1, 7]: 39% | inhibition at 32 µg/mL [1, 7]: 57% | inhibition at 100 µg/mL [1, 7]: 85% | inhibition at 320 µg/mL [1, 7]: 100% | inhibition at 1000 µg/mL [1, 7]: 100% | VR (Virus rating) [1, 8]: 1.3 | VR (Virus rating) ([1]; Table B, Test 1): 0.8 | VR (Virus rating) ([1]; Table B, Test 2): 07 | MNTC at 72 h [2, 9]: 10 µg/mL | MNTC at 72 h [2, 10]: 10 µg/mL

CCOP(=O)(O)CCCOCn1cnc2c(=O)[nH]c(N)nc21 [Example II, 9(3-ethylphosphono-1-propyloxymethyl)guanine]
Satellite lesions [3, 11]: 11 | TK+ virus, average number of lesions [3, 11]: 2.1 | Satellite lesions [3, 12]: 6 | TK+ virus, average number of lesions [3, 12]: 0.9 | EC50 [1, 5]: < 1 µg/mL | inhibition at 1.2 µg/mL [1, 6]: 69% | inhibition at 3.2 µg/mL [1, 6]: 96% | inhibition at 10 µg/mL [1, 6]: 38% | inhibition at 32 µg/mL [1, 6]: 6% | inhibition at 100 µg/mL [1, 6]: 47% | inhibition at 320 µg/mL [1, 6]: 82% | inhibition at 1000 µg/mL [1, 6]: 100% | inhibition at 1.2 µg/mL [1, 7]: 48% | inhibition at 3.2 µg/mL [1, 7]: 52% | inhibition at 10 µg/mL [1, 7]: 48% | inhibition at 32 µg/mL [1, 7]: 57% | inhibition at 100 µg/mL [1, 7]: 57% | inhibition at 320 µg/mL [1, 7]: 67% | inhibition at 1000 µg/mL [1, 7]: 76% | VR (Virus rating) ([1]; Table B, Test 1): >2.0 | VR (Virus rating) ([1]; Table B, Test 2): >1.4 | MIC (Minimum inhibitory concentration) ([1]; Table B, Test 2, dosage range wherein a 50% CPE inhibition is seen): <1.0 µg/mL | VR (cytomegalo virus): 2.1-2.3 | MNTC at 72 h [2, 9]: 320 µg/mL | MNTC at 72 h [2, 10]: > 1000 µg/mL

Nc1nc2c(ncn2COCCCP(=O)(O)O)c(=O)[nH]1 [Example I, 9(3-phosphono-1-propyloxymethyl)guanine]
inhibition at 1 µg/mL ([1]; MA104, Table A, conc. 1.0 μg/ml, 72 hours, read-out: CPE Inhib. (%)): 31% | inhibition at 3.2 µg/mL ([1]; MA104, Table A, conc. 3.2 μg/ml, 72 hours, read-out: CPE Inhib. (%)): 28% | inhibition at 10 µg/mL ([1]; MA104, Table A, conc. 10 μg/ml, 72 hours, read-out: CPE Inhib. (%)): 49% | inhibition at 32 µg/mL ([1]; MA104, Table A, conc. 32 μg/ml, 72 hours, read-out: CPE Inhib. (%)): 62% | inhibition at 100 µg/mL ([1]; MA104, Table A, conc. 100 μg/ml, 72 hours, read-out: CPE Inhib. (%)): 79% | inhibition at 320 µg/mL ([1]; MA104, Table A, conc. 320 μg/ml, 72 hours, read-out: CPE Inhib. (%)): 94% | inhibition at 1000 µg/mL ([1]; MA104, Table A, conc. 1000 μg/ml, 72 hours, read-out: CPE Inhib. (%)): 100% | EC50 ([1]; MA104, Table A, dosage range wherein a 50% CPE inhibition is seen, read-out: MIC (Minimum inhibitory concentration)): 10 µg/mL (≈ 33 µM) | VR (Virus rating) [1, 8]: 1.4

Nc1nc2c(ncn2COCCO)c(=O)[nH]1 [Acyclovir, acyclovir, reference compound]
Satellite lesions [3, 13]: 4 | TK+ virus, average number of lesions [3, 13]: 1.0
